Source: patent US20190071416A1, “COMPOUNDS FOR TREATMENT OF CANCER AND EPIGENETICS” (Agency For Science, Technology and Research, priority 2015, published 2019)
pIC50: −log10 of the molar value.

Target: T1, SMYD3 (Homo sapiens, UniProt Q9H7B4)
T1 sequence (Q9H7B4 1-428): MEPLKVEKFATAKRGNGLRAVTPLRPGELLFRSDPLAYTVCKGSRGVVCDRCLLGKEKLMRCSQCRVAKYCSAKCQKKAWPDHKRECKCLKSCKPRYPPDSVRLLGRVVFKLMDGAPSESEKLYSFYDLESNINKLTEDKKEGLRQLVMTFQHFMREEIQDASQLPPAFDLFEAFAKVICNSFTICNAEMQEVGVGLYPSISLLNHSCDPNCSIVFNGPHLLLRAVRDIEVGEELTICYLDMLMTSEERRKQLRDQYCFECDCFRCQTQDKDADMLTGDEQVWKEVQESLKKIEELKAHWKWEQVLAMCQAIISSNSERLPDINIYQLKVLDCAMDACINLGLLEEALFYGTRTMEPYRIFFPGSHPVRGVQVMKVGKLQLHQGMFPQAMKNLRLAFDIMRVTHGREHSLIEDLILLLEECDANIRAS
Test: SMYD3 biochemical assay (MTase-Glo, MAP3K2 peptide substrate)
Settings: Table 3; MTase assay, MAP3K2 peptide substrate; read-out: IC50
Procedure: A SMYD3 enzymatic assay was developed using Promega's Methyltransferase-Glo™ reagents. In the assay, SMYD3 catalyzes the methylation of the MAP3K2 peptide substrate by transferring a methyl group from SAM to MAP3K2 peptide and further converts the SAM to SAH. The SMYD3 methyltransferase activity is measured based on the amount of SAH produced from the reaction through the use of coupling enzymes that convert the SAH to ATP. The MTase-Glo detection solution then catalyzes the formation of light from ATP.
A final concentration of 1.0 μM and 10 μM SAM and MAP3K2 peptide were added and further incubated for 30 min at room temperature before adding the MTase Glo and detection reagent. Reaction signals were detected using microplate readers on luminescent mode (Safire Tecan). The IC50 was determined by non-linear regression, using GraphPad Prism version, 5.03.

| SMILES | pIC50 |
| --- | --- |
| CCCOC(=O)N1CCN(C(=O)c2ccc3c(Cl)c4c(nc3c2)CCCC4)CC12CC2 [A036, Propyl 7-(9-chloro-5,6,7,8-tetrahydroacridine-3-carbonyl)-4,7-diazaspiro[2.5]octane-4-carboxylate] | 5.17 |
| CCCOC(=O)N1CCN(C(=O)c2ccc3c(Cl)c4c(nc3c2)CCCC4)C2(CC2)C1 [A037, Propyl 4-(9-chloro-5,6,7,8-tetrahydroacridine-3-carbonyl)-4,7-diazaspiro[2.5]octane-7-carboxylate] | 5.08 |
| CCCCOC(=O)N1CCN(C(=O)c2ccc3c(Cl)c4c(nc3c2)CCCC4)CC1 [A038, Butyl 4-(9-chloro-5,6,7,8-tetrahydroacridine-3-carbonyl)piperazine-1-carboxylate] | 6.38 |
| Cc1cc(C(=O)N2C3CCCC2CN(C(=O)c2ccc4c(Cl)c5c(nc4c2)CCCC5)C3)n[nH]1 [A040, (9-Chloro-5,6,7,8-tetrahydroacridin-3-yl)(9-(5-methyl-1H-pyrazole-3-carbonyl)-3,9-diazabicyclo[3.3.1]nonan-3-yl)methanone] | 4.96 |
| CCCCOC(=O)N1C2CCCC1CN(C(=O)c1ccc3c(Cl)c4c(nc3c1)CCCC4)C2 [A041, Butyl 3-(9-chloro-5,6,7,8-tetrahydroacridine-3-carbonyl)-3,9-diazabicyclo[3.3.1]nonane-9-carboxylate] | 6.59 |
| CCCOC(=O)N1CCN(C(=O)c2ccc3c(Cl)c4c(nc3c2)CCCC4)CC1C(=O)OC (stereo not drawn) [A042, 2-Methyl 1-propyl 4-(9-chloro-5,6,7,8-tetrahydroacridine-3-carbonyl)piperazine-1,2-dicarboxylate] | 5.28 |
| CCCOC(=O)N1CC(C)N(C(=O)c2ccc3c(Cl)c4c(nc3c2)CCCC4)C(C)C1 (stereo not drawn) [A043, Propyl 4-(9-chloro-5,6,7,8-tetrahydroacridine-3-carbonyl)-3,5-dimethylpiperazine-1-carboxylate] | 6.26 |
| CCCOC(=O)N1CCN(C(=O)c2ccc3c(Cl)c4c(nc3c2)CC(C(=O)OC)CC4)CC1 (stereo not drawn) [A044, Methyl 9-chloro-6-(4-(propoxycarbonyl)piperazine-1-carbonyl)-1,2,3,4-tetrahydroacridine-3-carboxylate] | 6.21 |
| CCCOC(=O)N1CCN(C(=O)c2ccc3c(Cl)c4c(nc3c2)CCC(CN)C4)CC1 (stereo not drawn) [A045, Propyl 4-(7-(aminomethyl)-9-chloro-5,6,7,8-tetrahydroacridine-3-carbonyl)piperazine-1-carboxylate] | 5.92 |
| CCCOC(=O)N1CCN(C(=O)c2ccc3c(Cl)c4c(nc3c2)CCC(C#N)C4)CC1 (stereo not drawn) [A046, Propyl 4-(9-chloro-7-cyano-5,6,7,8-tetrahydroacridine-3-carbonyl)piperazine-1-carboxylate] | 6.10 |
| C=CCC1CCc2c(nc3cc(C(=O)N4CCN(C(=O)OCCC)CC4)ccc3c2Cl)C1 (stereo not drawn) [A047, Propyl 4-(6-allyl-9-chloro-5,6,7,8-tetrahydroacridine-3-carbonyl)piperazine-1-carboxylate] | 6.22 |
| CCCOC(=O)N1CCN(C(=O)c2ccc3c(Cl)c4c(nc3c2)CCCC4)C(C(=O)OC)C1 (stereo not drawn) [A051, 3-Methyl 1-propyl 4-(9-chloro-5,6,7,8-tetrahydroacridine-3-carbonyl)piperazine-1,3-dicarboxylate] | 6.19 |
| CCCOC(=O)N1CCN(C(=O)c2ccc3c(Cl)c4c(nc3c2)CCCC4)CC1COC(C)=O (stereo not drawn) [A052, Propyl 2-(acetoxymethyl)-4-(9-chloro-5,6,7,8-tetrahydroacridine-3-carbonyl)piperazine-1-carboxylate] | 5.74 |
| CCCOC(=O)N1CCN(C(=O)c2ccc3c(Cl)c4c(nc3c2)CC(c2ccccn2)CC4)CC1 (stereo not drawn) [A053, Propyl 4-(9-chloro-6-(pyridin-2-yl)-5,6,7,8-tetrahydroacridine-3-carbonyl)piperazine-1-carboxylate] | 6.62 |
| CCCOC(=O)N1CCN(C(=O)c2ccc3c(Cl)c4c(nc3c2)CC(c2cncnc2)CC4)CC1 (stereo not drawn) [A057, Propyl 4-(9-chloro-6-(pyrimidin-5-yl)-5,6,7,8-tetrahydroacridine-3-carbonyl)piperazine-1-carboxylate] | 6.51 |
| CCCOC(=O)N1CCN(C(=O)c2ccc3c(Cl)c4c(nc3c2)CC(c2ccncc2)CC4)CC1 (stereo not drawn) [A058, Propyl 4-(9-chloro-6-(pyridin-4-yl)-5,6,7,8-tetrahydroacridine-3-carbonyl)piperazine-1-carboxylate] | 6.72 |

Further lines, results first:

| pIC50 | SMILES |
| --- | --- |
| 5.74 | CCCOC(=O)N1CCN(C(=O)c2ccc3c(Cl)c4c(nc3c2)CCCC4)C(C)C1C (stereo not drawn) [A033, Propyl 4-(9-chloro-5,6,7,8-tetrahydroacridine-3-carbonyl)-2,3-dimethylpiperazine-1-carboxylate] |
| 6.42 | CCCOC(=O)N1CCN(C(=O)c2ccc3c(Cl)c4c(nc3c2)CCC(CC(=O)OC)C4)CC1 (stereo not drawn) [A034, Propyl 4-(9-chloro-7-(2-methoxy-2-oxoethyl)-5,6,7,8-tetrahydroacridine-3-carbonyl)piperazine-1-carboxylate] |
| 5.09 | CCCOC(=O)N1CCN(C(=O)c2ccc3c(Cl)c4c(nc3c2)CCCC4)CC1(C)C [A035, Propyl 4-(9-chloro-5,6,7,8-tetrahydroacridine-3-carbonyl)-2,2-dimethylpiperazine-1-carboxylate] |
| 5.89 | Cc1cc(C(=O)N2C3CCCC2CN(C(=O)c2ccc4c(Cl)c5c(nc4c2)CCCC5)C3)no1 [A039, (9-Chloro-5,6,7,8-tetrahydroacridin-3-yl)(9-(5-methylisoxazole-3-carbonyl)-3,9-diazabicyclo[3.3.1]nonan-3-yl)methanone] |
| 5.21 | CCCOC(=O)N1CCN(C(=O)c2ccc3c(Cl)c4c(nc3c2)CCCC4)CC1C(=O)NC (stereo not drawn) [A048, Propyl 4-(9-chloro-5,6,7,8-tetrahydroacridine-3-carbonyl)-2-(methylcarbamoyl)piperazine-1-carboxylate] |
| 5.19 | CCCNC(=O)N1CCN(C(=O)c2ccc3c(Cl)c4c(nc3c2)CCCC4)CC1 [A049, 4-(9-Chloro-5,6,7,8-tetrahydroacridine-3-carbonyl)-N-propylpiperazine-1-carboxamide] |
| 5.46 | C=CCCC(=O)N1CCN(C(=O)c2ccc3c(Cl)c4c(nc3c2)CCCC4)CC1 [A050, 1-(4-(9-Chloro-5,6,7,8-tetrahydroacridine-3-carbonyl)piperazin-1-yl)pent-4-en-1-one] |
| 5.28 | CCCOC(=O)N1CCN(C(=O)c2ccc3c(Cl)c4c(nc3c2)CCCC4)CC1COC(=O)C(C)C (stereo not drawn) [A054, Propyl 4-(9-chloro-5,6,7,8-tetrahydroacridine-3-carbonyl)-2-((isobutyryloxy)methyl)piperazine-1-carboxylate] |
| 5.62 | CCCOC(=O)N1CCN(C(=O)c2ccc3c(Cl)c4c(nc3c2)CCCC4)CC1COC(=O)CCOC (stereo not drawn) [A055, Propyl 4-(9-chloro-5,6,7,8-tetrahydroacridine-3-carbonyl)-2-(((3-methoxypropanoyl)oxy)methyl)-piperazine-1-carboxylate] |
| 5.77 | CCCOC(=O)N1CCN(C(=O)c2ccc3c(Cl)c4c(nc3c2)CCCC4)CC1C(N)=O (stereo not drawn) [A056, Propyl 2-carbamoyl-4-(9-chloro-5,6,7,8-tetrahydroacridine-3-carbonyl)piperazine-1-carboxylate] |
| 5.64 | CCCOC(=O)N1CCN(C(=O)c2ccc3c(Cl)c4c(nc3c2)CCCC4)C(C(N)=O)C1 (stereo not drawn) [A059, Propyl 3-carbamoyl-4-(9-chloro-5,6,7,8-tetrahydroacridine-3-carbonyl)piperazine-1-carboxylate] |
